# In publication PMC11472310, “Distinctive Immune Signatures Driven by Structural Alterations in Desmuramylpeptide NOD2 Agonists” (Journal of Medicinal Chemistry, 2024):
# Assays:
# Assay type in all cases: cell-based
# human PBMCs = test: Cytokine release from peripheral blood mononuclear cells (LEGENDplex panel); details: 18 h
# Description: The immunomodulatory effects of the selected desmuramylpeptides were examined in human primary peripheral blood mononuclear cells (PBMCs). This diverse mixture of immune cells provided a platform to investigate the effects of these NOD2 agonists within a physiologically relevant environment, encompassing other NOD2-interacting and downstream signaling proteins. […] Given that NOD2 activation often modulates the Toll-like receptor (TLR)-induced cytokine responses, we investigated the impact of combining desmuramylpeptides with lipopolysaccharide (LPS), a well-known TLR4 agonist, on cytokine secretion.[76]−[78]
# The elicited cytokine profiles thus broadly reflect the structure–activity relationships obtained in the reporter gene assays.
# Peripheral blood mononuclear cells were plated at a density of 1 × 10^6 cells/mL in 48-well plates containing 500 μL of growth medium. Cells were then treated with the compounds (2 μM) or the corresponding vehicle (0.1% DMSO), both in the absence and presence of LPS (10 ng/mL). Following an 18 h incubation period at 37 °C with 5% CO2, cell-free supernatants were collected and stored at −80 °C until analysis. […] Standard curves were constructed using recombinant cytokines provided in the kit. Data analysis was performed using Biolegend software Qognit and Prism (GraphPad, San Diego, CA, USA) software. The experiments were independently replicated four times. Statistical significance was determined using two-way analysis of variance (ANOVA) followed by Tukey’s multiple comparisons test.
# [1] = tested on: human blood monocyte subsets; test: Monocyte conversion assay in PBMCs (CD14/CD16 flow cytometry); details: 10 μM, 18 h, NT 19.5%
# Description: Engagement of NOD2 has been reported to increase the levels of an anti-inflammatory monocyte subset, denoted as patrolling monocytes (CD14^–, CD16^+2), thus exerting a counterintuitive role in inflammatory processes, while concomitantly increasing the levels of total blood monocytes (released from bone marrow).[18] […] This process involves a transition from the inflammatory monocytes, typified by CD14^+CD16^–, through an intermediate subset of CD14^+CD16^+ monocytes. […] To recapitulate this phenomenon, we modified the reported procedure and employed PBMCs in lieu of isolated monocytes. Identification of human blood monocyte subsets was achieved through flow cytometry, utilizing the expression of CD14 and CD16 markers as distinguishing criteria. […] Similar to what has been reported (e.g., inactivity of murabutide),[18] also in our case not all NOD2 agonists were equally endowed with the ability to generate patrolling monocytes.
# The monocyte conversion assay was conducted following previously established methods, with some adjustments.[18] Peripheral blood mononuclear cells were plated at a density of 3 × 10^6 cells/mL in 24-well plates containing 700 μL of growth medium. Cells were then treated with MDP and desmuramylpeptides (10 μM) or the corresponding vehicle (0.1% DMSO). Following an incubation period at 37 °C with 5% CO2, cells were transferred to 1.5 mL tube using phosphate-buffered saline (PBS) and scraper. The cells were blocked with human TruStain Fcx (BioLegend) and stained using antihuman CD16 antibodies/Alexa Fluor 488 (BioLegend); antihuman CD14 antibodies/PE-Cy7 (BioLegend); antihuman HLA-DR antibodies/APC-Fire750 (BioLegend) and blocked with TrueStain Monocyte Blocker. A viability dye Helix NP Blue (BioLegend) was added to the previous panel to discriminate live cells. PBMC were analyzed using an Attune NxT flow cytometer (Thermo Fisher Scientific, Waltham, MA, USA) and the FlowJo software (Tree Star, Inc., Ashland, OR, USA). Initially, lymphocytes (CD14^–, CD16^–) and NK (CD16^–, HLA-DR^–) were eliminated, after which classical, intermediate and nonclassical monocytes were specifically identified by selective gating strategy as follows: CD14^+ CD16^– (classical), CD14^+ CD16^+ (intermediate) and CD14^– CD16^+ (nonclassical). Each experiment was conducted in duplicate and repeated in three independent biological replicates.
# K562 cancer cells = test: PBMC cytotoxicity against K562 cancer cells (flow cytometry); details: for cytotoxicity of PBMCs against K562 cells, cotreatment with LPS (relative to negative control) / Cytotoxicity (ratio to control), + LPS: 10 μM + LPS 1 μg/mL; for cytotoxicity of PBMCs against K562 cells, cotreatment with LPS (relative to negative control) / enhancement of cytotoxicity of PBMCs against K562 cells (relative to negative control): 18 h, then 4 h coincubation; for cytotoxicity of PBMCs against K562 cells, cotreatment with LPS (relative to negative control): 40:1; for Cytotoxicity (ratio to control), + LPS / Cytotoxicity (ratio to control): Table S2; for Cytotoxicity (ratio to control) / enhancement of cytotoxicity of PBMCs against K562 cells (relative to negative control): alone: compounds 10 μM, LPS 1 μg/mL, IL-2 200 U/mL; for enhancement of cytotoxicity of PBMCs against K562 cells (relative to negative control): effector:target 40:1
# Method: In this study, we investigated the potential of desmuramylpeptides, both alone and in combination with LPS, to enhance the cytotoxic activity of PBMCs against cancer cells employing a flow-cytometry-based cytotoxicity assay based on coincubation of preactivated PBMCs with fluorescently labeled K562 cancer cells.[82] Among the diverse subpopulations within PBMCs, natural killer (NK) cells play a pivotal role in detecting and eliminating cancer cells. NOD2-mediated NK cell activity against cancer cells arises from both direct NOD2 agonist elicited cytolytic activity of NK cells[83] and indirect activation through cytokine release by other NOD2-responsive cells, such as monocytes, which comprise approximately 10% of PBMCs; such interactions potentially reinforce the immune response.[84] […] To that end, we utilized the entire PBMC population as effector cells rather than isolated NK cells, to mimic conditions more closely resembling the in vivo environment while K562 chronic myelogenous leukemia cells were used as the target cells in a 40:1 effector to target cell ratio.[87]
# The PBMC cytotoxicity assays utilizing K562 cells were conducted following previously established methods, with some adjustments.[82] […] Meanwhile, K562 cells were stained with CFSE (Invitrogen, Carlsbad, CA, USA), washed twice with complete medium, and then added (1 × 10^4 cells per well) to the pretreated PBMCs to achieve a final effector cell to target tumor cell ratio of 40:1. Following a 4-h coincubation period at 37 °C with 5% CO2, cells were stained with Sytox blue dead cell stain (Invitrogen) and analyzed using an Attune NxT flow cytometer (Thermo Fisher Scientific, Waltham, MA, USA) along with FlowJo software (Tree Star, Inc., Ashland, OR, USA). Cells positive for both CFSE and Sytox blue were designated as dead K562 cells. PBMCs alone and CFSE-labeled cancer cells alone were also exposed to the compounds at equivalent concentrations and stained with Sytox blue to assess any direct cytotoxic effects of the compounds on PBMCs and cancer cells separately. Each experiment was conducted in duplicate and repeated in three independent biological replicates. Statistical analysis was performed using one-way ANOVA followed by Dunnett’s multiple comparisons test.
Compound,levels of LPS-induced IL-10 (human PBMCs; 2 μM + LPS 10 ng/mL),production of MCP-1 and IFN-γ compared to the MDP/LPS combination (human PBMCs; 2 μM + LPS 10 ng/mL),"secretion of IL-1β, IL-10 and TGFβ compared to the MDP/LPS combination (human PBMCs; 2 μM + LPS 10 ng/mL)",levels of nonclassical monocytes [1] [%],"cytotoxicity of PBMCs against K562 cells, cotreatment with LPS (relative to negative control) (K562 cancer cells) [fold]","Cytotoxicity (ratio to control), + LPS (K562 cancer cells)",Cytotoxicity (ratio to control) (K562 cancer cells),enhancement of cytotoxicity of PBMCs against K562 cells (relative to negative control) (K562 cancer cells),production of IL-12p70 and TNF-α compared to MDP (human PBMCs; 2 μM + LPS 10 ng/mL),"capacity to induce IP-10 and IFN-γ secretion (human PBMCs; 2 μM + LPS 10 ng/mL, versus MDP)","production of proinflammatory cytokines and chemokines including IL-6, IL-8 and MCP-1 (human PBMCs; 2 μM alone (no LPS))"
"CC/C=C\C/C=C\C/C=C\C/C=C\C/C=C\CCCC(=O)Oc1ccc(/C=C/C(=O)NCC(=O)N[C@H](C(=O)N[C@H](CCC(=O)OCC)C(=O)OCC)C(C)C)cc1OC [Compound 23, Diethyl ((E)-3-(4-(((5Z,8Z,11Z,14Z,17Z)-Icosa-5,8,11,14,17-pentaenoyl)oxy)-3-methoxyphenyl)acryloyl)glycyl-L-valyl-D-glutamate]",amplified,significantly diminished production,increased secretion,31.0,1.30,1.30 ± 0.26,1.02 ± 0.08,no activity,–,–,–
"CCOC(=O)CC[C@@H](NC(=O)[C@@H](NC(=O)CNC(=O)/C=C/c1ccc(OC(=O)CO[C@H]2CC[C@@]3(C)C(=CC[C@H]4[C@@H]5CC[C@H]([C@H](C)CCCC(C)C)[C@@]5(C)CC[C@@H]43)C2)c(OC)c1)C(C)C)C(=O)OCC [Compound 26, Diethyl ((E)-3-(4-(2-(((8S,9S,10R,13R,14S,17R)-10,13-Dimethyl-17-((R)-6-methylheptan-2-yl)-2,3,4,7,8,9,10,11,12,13,14,15,16,17-tetradecahydro-1H-cyclopenta[a]phenanthren-3-yl)oxy)acetoxy)-3-methoxyphenyl)acryloyl)glycyl-L-valyl-D-glutamate]",amplified,–,–,44.8,2.39,2.39 ± 0.27,1.34 ± 0.05,1.34 fold,higher production,comparable to MDP,smaller increases
"CCCC(=O)Oc1ccc(/C=C/C(=O)NCC(=O)N[C@H](C(=O)N[C@H](CCC(=O)OCC)C(=O)OCC)C(C)C)cc1OC [Compound 3, Diethyl ((E)-3-(4-(Butyryloxy)-3-methoxyphenyl)acryloyl)glycyl-L-valyl-D-glutamate]",amplified,significantly diminished production,increased secretion,31.9,0.98,0.98 ± 0.18,1.04 ± 0.06,no activity,–,–,–
